In patent US20250289802A1, “3-(1-OXO-5-(PIPERIDIN-4-YL)ISOINDOLIN-2-YL)PIPERIDINE-2,6-DIONE DERIVATIVES AND USES THEREOF” (NOVARTIS AG, priority 2019, published 2025):

biological target: T1, human TGF-β3 (Homo sapiens, UniProt P10600); test: not given; conditions: Biacore; cited from earlier work
T1 sequence (P10600 301-412 limits assumed): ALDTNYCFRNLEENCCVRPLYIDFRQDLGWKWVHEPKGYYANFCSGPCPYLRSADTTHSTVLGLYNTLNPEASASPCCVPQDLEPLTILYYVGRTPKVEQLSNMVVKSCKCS

In the case of “XOMA 089: fully human monoclonal antibody that specifically binds and neutralizes TGF-beta 1 and 2 ligands”, the Kd is listed as 948 µM.

biological target: IKZF2 (Helios) (Homo sapiens, UniProt Q96SW2+Q9UKS7); test: Prolabel quantification of IKZF2 protein levels in 293GT cells; format: cell-based; conditions: not given
Sequence (Q9UKS7 whole entry, the tested form may be a part): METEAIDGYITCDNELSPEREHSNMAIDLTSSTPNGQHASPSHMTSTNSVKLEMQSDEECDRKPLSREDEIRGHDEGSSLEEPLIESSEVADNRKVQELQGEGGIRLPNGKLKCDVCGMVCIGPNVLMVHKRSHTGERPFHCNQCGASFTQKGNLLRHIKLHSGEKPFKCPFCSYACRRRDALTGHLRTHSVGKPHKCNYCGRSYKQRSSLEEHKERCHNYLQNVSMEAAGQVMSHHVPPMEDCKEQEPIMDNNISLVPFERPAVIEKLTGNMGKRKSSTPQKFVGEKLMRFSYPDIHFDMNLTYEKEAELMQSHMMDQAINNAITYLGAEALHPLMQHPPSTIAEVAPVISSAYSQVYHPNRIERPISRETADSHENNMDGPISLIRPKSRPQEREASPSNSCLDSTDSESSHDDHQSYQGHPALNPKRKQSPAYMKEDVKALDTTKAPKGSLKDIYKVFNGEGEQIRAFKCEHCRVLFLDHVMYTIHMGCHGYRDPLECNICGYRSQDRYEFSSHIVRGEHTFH
Sequence (Q96SW2 whole entry, the tested form may be a part): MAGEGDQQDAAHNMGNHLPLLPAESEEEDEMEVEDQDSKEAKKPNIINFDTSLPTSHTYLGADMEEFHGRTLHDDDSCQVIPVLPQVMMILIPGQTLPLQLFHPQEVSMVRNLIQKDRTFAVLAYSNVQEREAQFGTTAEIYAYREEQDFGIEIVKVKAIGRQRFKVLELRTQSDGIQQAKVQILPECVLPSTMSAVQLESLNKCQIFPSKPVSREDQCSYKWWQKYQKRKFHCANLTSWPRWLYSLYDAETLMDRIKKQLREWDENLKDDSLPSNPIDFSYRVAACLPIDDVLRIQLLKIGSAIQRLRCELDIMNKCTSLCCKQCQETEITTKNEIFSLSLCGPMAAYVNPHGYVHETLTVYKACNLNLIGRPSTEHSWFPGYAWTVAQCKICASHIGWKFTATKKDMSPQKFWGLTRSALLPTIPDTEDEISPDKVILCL
Sequence (Q16531 whole entry partner, the tested form may be a part): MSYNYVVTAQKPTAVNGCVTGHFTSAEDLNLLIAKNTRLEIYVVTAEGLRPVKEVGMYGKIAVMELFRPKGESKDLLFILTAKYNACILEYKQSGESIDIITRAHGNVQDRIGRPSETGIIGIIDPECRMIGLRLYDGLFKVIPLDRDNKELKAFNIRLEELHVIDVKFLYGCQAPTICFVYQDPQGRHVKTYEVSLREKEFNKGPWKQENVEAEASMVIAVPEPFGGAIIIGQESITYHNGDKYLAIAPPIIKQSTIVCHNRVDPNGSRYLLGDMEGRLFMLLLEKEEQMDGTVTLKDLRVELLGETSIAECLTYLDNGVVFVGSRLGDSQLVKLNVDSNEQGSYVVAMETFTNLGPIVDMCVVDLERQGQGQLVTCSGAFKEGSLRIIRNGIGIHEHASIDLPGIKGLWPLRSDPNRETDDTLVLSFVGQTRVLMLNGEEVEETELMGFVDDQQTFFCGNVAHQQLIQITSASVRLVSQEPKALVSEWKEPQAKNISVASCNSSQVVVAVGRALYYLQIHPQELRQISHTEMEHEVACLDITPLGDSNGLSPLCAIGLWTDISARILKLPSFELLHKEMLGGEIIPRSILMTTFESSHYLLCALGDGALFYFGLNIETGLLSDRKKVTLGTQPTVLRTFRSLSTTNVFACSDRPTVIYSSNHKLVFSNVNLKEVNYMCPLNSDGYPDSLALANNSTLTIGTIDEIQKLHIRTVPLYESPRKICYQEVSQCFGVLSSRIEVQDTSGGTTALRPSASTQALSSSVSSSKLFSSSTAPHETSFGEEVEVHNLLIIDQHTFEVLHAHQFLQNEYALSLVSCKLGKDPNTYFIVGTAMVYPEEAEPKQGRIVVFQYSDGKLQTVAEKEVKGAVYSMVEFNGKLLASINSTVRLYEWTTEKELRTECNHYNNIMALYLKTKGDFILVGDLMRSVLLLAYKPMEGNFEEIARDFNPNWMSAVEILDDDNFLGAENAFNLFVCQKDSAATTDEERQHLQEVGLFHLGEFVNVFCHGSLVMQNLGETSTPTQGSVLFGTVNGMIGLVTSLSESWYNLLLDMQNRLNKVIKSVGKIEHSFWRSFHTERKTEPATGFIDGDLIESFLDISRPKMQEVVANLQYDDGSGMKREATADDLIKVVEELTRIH
Method: The Prolabel system from DiscoverX was used to develop high-throughput and quantitative assays to measure changes in IKZF1 and IKZF2 protein levels in response to compounds. The prolabel tag was derived from the alpha fragment of beta galactosidase and has the following protein sequence: mssnslavvlqrrdwenpgvtglnrlaahppfaswrnseeartdrpsqqlrsinge. The complementary fragment of beta-galactosidase (from DiscoverX), is added to the prolabel tag to form an active beta galactosidase enzyme whose activity can be precisely measured. In this way, the levels of a fusion protein with the prolabel tag can be quantified in cell lysates.
Lentiviral vectors, based on the Invitrogen pLenti6.2/V5 DEST backbone, were constructed that placed the prolabel tag upstream of IKZF1, IKZF2 or GSPT1 and expressed the fusion protein from a CMV promoter.
To ensure moderate and consistent expression of the prolabel fusion proteins across all cells in the population, stable cell lines were constructed from cells expressing a single copy of the construct. Lentivirus packaged with the constructs was made using the Virapower kit from Invitrogen.
The levels of prolabel tagged fusion proteins in compound treated cell lines were measured as follows: Day 1, Cells were diluted to 1.0×10^6 cells/ml in normal growth medium. 17.5 μL of cells were plated in each well of a solid white 384 well plate. Plates were incubated overnight in a 37° C. tissue culture incubator.
Day 2, Serial dilutions of compounds were made in 384 well plates from 10 mM stocks. 15 μL of DMSO was added to each well of a 384 well plate. In the first column, 15 μL of stock compound was added. The solution was mixed and 15 μL was transferred to the next column. This was repeated until 20 two-fold dilutions were prepared. 2.5 μL of diluted compounds were transferred into 60 μL of cell culture medium in another 384 well plate, and mixed well. 2.5 μL of this mixture was added to the plated cells. The final DMSO concentration was 0.5% and the highest concentration of compound was 50 μM. Plates were incubated overnight (e.g., about 14 h, 18 h, or 24 h) in a 37° C. tissue culture incubator.
Day 3, Plates were removed from the incubator and allowed to equilibrate at rt for 30 minutes. Prolabel substrate (DiscoverX PathHunter Prolabel Detection Kit, User manual: 93-0180) was added as described by the manufacturers protocols. Plates were incubated at rt for three hours and luminescence was read using an Envision reader (Perkin Elmer) Data was analyzed and visualized using the Spotfire software package.

In the case of `O=C1CCC(N2Cc3cc(C4CCN(Cc5ccc(=O)[nH]c5)CC4)ccc3C2=O)C(=O)N1` (centres unmarked) [Compound I-1, 3-(1-oxo-5-(1-((6-oxo-1,6-dihydropyridin-3-yl)methyl)piperidin-4-yl)isoindolin-2-yl)piperidine-2,6-dione], the “IKZF2 % protein reduction at 10 μM, 24 h” value is reported as 70%.

For `CC1CC(c2ccc3c(c2)CN(C2CCC(=O)NC2=O)C3=O)CC(C)N1Cc1ccccc1` (centres unmarked) [Compound I-2, 3-(5-(1-benzyl-2,6-dimethylpiperidin-4-yl)-1-oxoisoindolin-2-yl)piperidine-2,6-dione], the “IKZF2 % protein reduction at 30 uM” value was 35% at.

same assay, conditions: 10 μM, 24 h, 293GT cells

In order of rising “IKZF2 % protein reduction at 10 μM, 24 h” value:
1. O=C1CCC(N2Cc3cc(C4CCN(Cc5cccnn5)CC4)ccc3C2=O)C(=O)N1 (centres unmarked) [Compound I-15, 3-(1-oxo-5-(1-(pyridazin-3-ylmethyl)piperidin-4-yl)isoindolin-2-yl)piperidine-2,6-dione]  40%
2. O=C1CCC(N2Cc3cc(C4CCN(Cc5ccnnc5)CC4)ccc3C2=O)C(=O)N1 (centres unmarked) [Compound I-18, 3-(1-oxo-5-(1-(pyridazin-4-ylmethyl)piperidin-4-yl)isoindolin-2-yl)piperidine-2,6-dione]  40%
3. COc1ccc(CN2CCC(c3ccc4c(c3)CN(C3CCC(=O)NC3=O)C4=O)CC2)nc1 (centres unmarked) [Compound I-6, 3-(5-(1-((5-methoxypyridin-2-yl)methyl)piperidin-4-yl)-1-oxoisoindolin-2-yl)piperidine-2,6-dione]  50%
4. O=C1CCC(N2Cc3cc(C4CCN(Cc5ccncn5)CC4)ccc3C2=O)C(=O)N1 (centres unmarked) [Compound I-16, 3-(1-oxo-5-(1-(pyrimidin-4-ylmethyl)piperidin-4-yl)isoindolin-2-yl)piperidine-2,6-dione]  50%
5. Cc1ncc(CN2CCC(c3ccc4c(c3)CN(C3CCC(=O)NC3=O)C4=O)CC2)cn1 (centres unmarked) [Compound I-17, 3-(5-(1-((2-methylpyrimidin-5-yl)methyl)piperidin-4-yl)-1-oxoisoindolin-2-yl)piperidine-2,6-dione]  50%
6. O=C1CCC(N2Cc3cc(C4CCN(Cc5cnccn5)CC4)ccc3C2=O)C(=O)N1 (centres unmarked) [Compound I-14, 3-(1-oxo-5-(1-(pyrazin-2-ylmethyl)piperidin-4-yl)isoindolin-2-yl)piperidine-2,6-dione]  55%
7. N#C[C@H]1CC[C@H](CN2CCC(c3ccc4c(c3)CN(C3CCC(=O)NC3=O)C4=O)CC2)CC1 (some centres unmarked) [Compound I-3, (1r,4r)-4-((4-(2-(2,6-dioxopiperidin-3-yl)-1-oxoisoindolin-5-yl)piperidin-1-yl)methyl)cyclohexane-1-carbonitrile]  60%
8. CCOc1ccc(CN2CCC(c3ccc4c(c3)CN(C3CCC(=O)NC3=O)C4=O)CC2)nc1 (centres unmarked) [Compound I-5, 3-(5-(1-((5-ethoxypyridin-2-yl)methyl)piperidin-4-yl)-1-oxoisoindolin-2-yl)piperidine-2,6-dione]  60%
9. O=C1CCC(N2Cc3cc(C4CCN(CCn5cccn5)CC4)ccc3C2=O)C(=O)N1 (centres unmarked) [Compound I-11, 3-(5-(1-(2-(1H-pyrazol-1-yl)ethyl)piperidin-4-yl)-1-oxoisoindolin-2-yl)piperidine-2,6-dione]  60%
10. CCC(c1cnn(CC)c1)N1CCC(c2ccc3c(c2)CN(C2CCC(=O)NC2=O)C3=O)CC1 (centres unmarked) [Compound I-32, 3-(5-(1-(1-(1-ethyl-1H-pyrazol-4-yl)propyl)piperidin-4-yl)-1-oxoisoindolin-2-yl)piperidine-2,6-dione]  62%
11. CCC(c1cnccn1)N1CCC(c2ccc3c(c2)CN(C2CCC(=O)NC2=O)C3=O)CC1 (centres unmarked) [Compound I-33, 3-(1-oxo-5-(1-(1-(pyrazin-2-yl)propyl)piperidin-4-yl)isoindolin-2-yl)piperidine-2,6-dione]  62%
12. CCOc1ccc(CN2CCC(c3ccc4c(c3)CN(C3CCC(=O)NC3=O)C4=O)CC2)cn1 (centres unmarked) [Compound I-8, 3-(5-(1-((6-ethoxypyridin-3-yl)methyl)piperidin-4-yl)-1-oxoisoindolin-2-yl)piperidine-2,6-dione]  70%
13. CCn1cc(C(C)N2CCC(c3ccc4c(c3)CN(C3CCC(=O)NC3=O)C4=O)CC2)cn1 (centres unmarked) [Compound I-31, 3-(5-(1-(1-(1-ethyl-1H-pyrazol-4-yl)ethyl)piperidin-4-yl)-1-oxoisoindolin-2-yl)piperidine-2,6-dione]  70%
14. COC1CCC(N2CCC(c3ccc4c(c3)CN(C3CCC(=O)NC3=O)C4=O)CC2)CC1 (centres unmarked) [Compound I-36, 3-(5-(1-(4-methoxycyclohexyl)piperidin-4-yl)-1-oxoisoindolin-2-yl)piperidine-2,6-dione]  74%
15. O=C1CCC(N2Cc3cc(C4CCN(CC5CCC(CF)CC5)CC4)ccc3C2=O)C(=O)N1 (centres unmarked) [Compound I-10, 3-(5-(1-((4-(fluoromethyl)cyclohexyl)methyl)piperidin-4-yl)-1-oxoisoindolin-2-yl)piperidine-2,6-dione]  75%
16. COc1ccc(CN2CCC(c3ccc4c(c3)CN(C3CCC(=O)NC3=O)C4=O)CC2)cn1 (centres unmarked) [Compound I-7, 3-(5-(1-((6-methoxypyridin-3-yl)methyl)piperidin-4-yl)-1-oxoisoindolin-2-yl)piperidine-2,6-dione]  80%
17. CC1=CCC(CN2CCC(c3ccc4c(c3)CN(C3CCC(=O)NC3=O)C4=O)CC2)CC1 (centres unmarked) [Compound I-13, 3-(5-(1-((4-methylcyclohex-3-en-1-yl)methyl)piperidin-4-yl)-1-oxoisoindolin-2-yl)piperidine-2,6-dione]  80%
18. CC(C1CCOCC1)N1CCC(c2ccc3c(c2)CN(C2CCC(=O)NC2=O)C3=O)CC1 (centres unmarked) [Compound I-30, 3-(1-oxo-5-(1-(1-(tetrahydro-2H-pyran-4-yl)ethyl)piperidin-4-yl)isoindolin-2-yl)piperidine-2,6-dione]  80%
19. O=C1CCC(N2Cc3cc(C4CCN(C5CCc6ncccc65)CC4)ccc3C2=O)C(=O)N1 (centres unmarked) [Compound I-35, 3-(5-(1-(6,7-dihydro-5H-cyclopenta[b]pyridin-5-yl)piperidin-4-yl)-1-oxoisoindolin-2-yl)piperidine-2,6-dione]  80%

biological target: T2, human TGF-β2 (Homo sapiens, UniProt P61812); test: not given; conditions: Biacore; cited from earlier work
T2 sequence (P61812 303-414 limits assumed): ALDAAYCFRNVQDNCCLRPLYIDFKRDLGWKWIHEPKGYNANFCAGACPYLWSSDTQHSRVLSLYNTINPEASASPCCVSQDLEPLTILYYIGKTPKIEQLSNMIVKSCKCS

For “XOMA 089: fully human monoclonal antibody that specifically binds and neutralizes TGF-beta 1 and 2 ligands”, the Kd is listed as 67.3 µM.
